Laboratory results taken from the NIST ThermoML archive (doi:10.1016/j.fluid.2007.10.004).
Numbers after ± are expanded uncertainties.

Settings: Capillary rise

Row | SMILES | surface tension liquid-gas (298 K) [mN/m] | surface tension liquid-gas (303 K) [mN/m] | surface tension liquid-gas (308 K) [mN/m] | surface tension liquid-gas (313 K) [mN/m] | surface tension liquid-gas (318 K) [mN/m] | surface tension liquid-gas (323 K) [mN/m] | surface tension liquid-gas (328 K) [mN/m] | surface tension liquid-gas (333 K) [mN/m] | surface tension liquid-gas (338 K) [mN/m] | surface tension liquid-gas (343 K) [mN/m] | surface tension liquid-gas (348 K) [mN/m] | surface tension liquid-gas (353 K) [mN/m] | surface tension liquid-gas (358 K) [mN/m] | surface tension liquid-gas (363 K) [mN/m] | surface tension liquid-gas (368 K) [mN/m] | surface tension liquid-gas (373 K) [mN/m] | surface tension liquid-gas (378 K) [mN/m] | surface tension liquid-gas (383 K) [mN/m] | surface tension liquid-gas (388 K) [mN/m] | surface tension liquid-gas (393 K) [mN/m]
1 | CCCCn1cc[n+](C)c1.F[P-](F)(F)(F)(F)F [1-butyl-3-methylimidazolium hexafluorophosphate] | 47.5 ± 1.3 | 47.2 ± 1.3 | 46.9 ± 1.3 | 46.5 ± 1.3 | 46 ± 1.3 | 45.6 ± 1.3 | 45.3 ± 1.3 | 44.9 ± 1.3 | 44.6 ± 1.3 | 44.3 ± 1.3 | 43.8 ± 1.3 | 43.5 ± 1.3 | 43.1 ± 1.2 | 42.8 ± 1.2 | 42.4 ± 1.2 | 42.1 ± 1.2 | 41.7 ± 1.2 | 41.3 ± 1.2 | 41.1 ± 1.2 | 40.8 ± 1.2
2 | CCCCn1cc[n+](C)c1.[Cl-] [1-butyl-3-methylimidazolium chloride] | 48.2 ± 1.4 | 47.8 ± 1.3 | 47.5 ± 1.3 | 47.2 ± 1.3 | 46.9 ± 1.3 | 46.6 ± 1.3 | 46.3 ± 1.3 | 46 ± 1.3 | 45.6 ± 1.3 | 45.3 ± 1.3 | 45 ± 1.3 | 44.7 ± 1.3 | 44.4 ± 1.3 | 43.9 ± 1.3 | 43.6 ± 1.3 | 43.2 ± 1.2 | 42.9 ± 1.2 | 42.5 ± 1.2 | 42.2 ± 1.2 | 41.8 ± 1.2
3 | CCCCn1cc[n+](C)c1.[I-] [1-butyl-3-methylimidazolium iodide] | 53.3 ± 1.5 | 52.9 ± 1.5 | 52.5 ± 1.5 | 52.1 ± 1.5 | 51.5 ± 1.4 | 51.1 ± 1.4 | 50.7 ± 1.4 | 50.3 ± 1.4 | 49.9 ± 1.4 | 49.4 ± 1.4 | 49 ± 1.4 | 48.6 ± 1.4 | 48.2 ± 1.4 | 47.8 ± 1.4 | 47.4 ± 1.3 | 47.1 ± 1.3 | 46.7 ± 1.3 | 46.3 ± 1.3 | 46 ± 1.3 | 45.6 ± 1.3
4 | CCCCCCn1cc[n+](C)c1.[I-] [1-hexyl-3-methylimidazolium iodide] | 43.5 ± 1.3 | 43.1 ± 1.2 | 42.7 ± 1.2 | 42.3 ± 1.2 | 41.9 ± 1.2 | 41.5 ± 1.2 | 41.1 ± 1.2 | 40.8 ± 1.2 | 40.4 ± 1.2 | 40.1 ± 1.2 | 39.7 ± 1.2 | 39.4 ± 1.2 | 39 ± 1.2 | 38.6 ± 1.1 | 38.3 ± 1.1 | 37.9 ± 1.1 | 37.6 ± 1.1 | 37.2 ± 1.1 | 36.8 ± 1.1 | 36.5 ± 1.1
5 | CCCCCCCC[n+]1ccn(C)c1.F[B-](F)(F)F [1-methyl-3-octylimidazolium tetrafluoroborate] | 30.7 ± 1 | 30.4 ± 1 | 30.1 ± 1 | 29.9 ± 1 | 29.6 ± 1 | 29.4 ± 1 | 29.2 ± 1 | 28.9 ± 0.9 | 28.7 ± 0.9 | 28.4 ± 0.9 | 28.2 ± 0.9 | 27.9 ± 0.9 | 27.7 ± 0.9 | 27.4 ± 0.9 | 27.2 ± 0.9 | 27 ± 0.9 | 26.7 ± 0.9 | 26.5 ± 0.9 | 26.3 ± 0.9 | 26 ± 0.9
6 | CCCCn1cc[n+](C)c1.F[B-](F)(F)F [1-butyl-3-methylimidazolium tetrafluoroborate] | 43.6 ± 1.3 | 43.3 ± 1.2 | 43 ± 1.2 | 42.7 ± 1.2 | 42.3 ± 1.2 | 42 ± 1.2 | 41.8 ± 1.2 | 41.5 ± 1.2 | 41.2 ± 1.2 | 40.9 ± 1.2 | 40.7 ± 1.2 | 40.4 ± 1.2 | 40.2 ± 1.2 | 39.8 ± 1.2 | 39.5 ± 1.2 | 39.2 ± 1.2 | 39 ± 1.2 | 38.8 ± 1.1 | 38.5 ± 1.1 | 38.2 ± 1.1
7 | CCCCCCn1cc[n+](C)c1.[Cl-] [1-hexyl-3-methylimidazolium chloride] | 41.8 ± 1.2 | 41.5 ± 1.2 | 41.2 ± 1.2 | 40.8 ± 1.2 | 40.5 ± 1.2 | 40.2 ± 1.2 | 40 ± 1.2 | 39.8 ± 1.2 | 39.4 ± 1.2 | 39.1 ± 1.2 | 38.8 ± 1.2 | 38.5 ± 1.1 | 38.3 ± 1.1 | 37.9 ± 1.1 | 37.7 ± 1.1 | 37.4 ± 1.1 | 37.1 ± 1.1 | 36.8 ± 1.1 | 36.5 ± 1.1 | 36.2 ± 1.1
8 | CCCCCCn1cc[n+](C)c1.F[P-](F)(F)(F)(F)F [1-hexyl-3-methylimidazolium hexafluorophosphate] | 43.4 ± 1.3 | 43 ± 1.2 | 42.6 ± 1.2 | 42.3 ± 1.2 | 41.9 ± 1.2 | 41.5 ± 1.2 | 41.1 ± 1.2 | 40.8 ± 1.2 | 40.5 ± 1.2 | 40.2 ± 1.2 | 39.8 ± 1.2 | 39.5 ± 1.2 | 39.1 ± 1.2 | 38.8 ± 1.2 |  |  |  |  |  | 
9 | CCCCCCCC[n+]1ccn(C)c1.[Cl-] [1-methyl-3-octylimidazolium chloride] | 31.9 ± 1 | 31.7 ± 1 | 31.5 ± 1 | 31.2 ± 1 | 30.9 ± 1 | 30.6 ± 1 | 30.3 ± 1 | 30 ± 1 | 29.7 ± 1 | 29.5 ± 1 | 29.2 ± 1 | 28.9 ± 0.9 | 28.7 ± 0.9 | 28.4 ± 0.9 | 28.2 ± 0.9 | 27.9 ± 0.9 | 27.6 ± 0.9 | 27.4 ± 0.9 | 27 ± 0.9 | 26.7 ± 0.9
10 | CCCCCCn1cc[n+](C)c1.F[B-](F)(F)F [1-hexyl-3-methylimidazolium tetrafluoroborate] | 39.2 ± 1.2 | 38.9 ± 1.2 | 38.7 ± 1.1 | 38.4 ± 1.1 | 38.1 ± 1.1 | 37.9 ± 1.1 | 37.7 ± 1.1 | 37.5 ± 1.1 | 37.2 ± 1.1 | 36.9 ± 1.1 | 36.6 ± 1.1 | 36.4 ± 1.1 | 36.2 ± 1.1 | 35.8 ± 1.1 | 35.6 ± 1.1 | 35.4 ± 1.1 | 35.1 ± 1.1 | 34.9 ± 1.1 | 34.6 ± 1.1 | 34.3 ± 1.1
